{"source": "patent US20140088044A1", "about": "“PRODUCT COMPRISING A NICOTINE-CONTAINING MATERIAL AND AN ANTI-CANCER AGENT” (priority 2012, published 2014)", "key": {"[1]": {"experiment": "Pharmacokinetic parameters in lung and plasma after inhalational administration (HPLC)", "protocol": "After 8 min of inhalation treatment, BALB/c nude mice were euthanized at various time points and drug levels were analyzed by HPLC in plasma and lung tissues."}, "[2]": {"experiment": "Drug levels in lungs and plasma after inhalation vs. oral gavage", "type": "in vivo, mice"}, "A549 xenografts": {"test_system": "A549 xenografts", "experiment": "A549 xenografts in nude mice, PS V and curcumin alone and combined", "type": "in vivo, female nude mice", "settings": "for inhibition of tumor growth (in words): duration of the study, to day 36; for average tumor volume: end of the study (day 36), PS V 200 mg/kg/d, curcumin 500 mg/kg/d, control 521±76 mm^3; for reduction in tumor weight: PS V p=0.06, PS V plus curcumin p<0.01", "protocol": "Polymeric nanoparticles of poly(c-caprolactone) (11000)-polyethylene glycol (5000) with entrapped curcumin were prepared according to the nanopercipitation-solvent displacement method. […] Then, the mice were inoculated subcutaneously on both flanks with […] cells (2×10^6 each). The treatment was resumed one day after tumor implantation and continued daily until the end of the study."}, "human cancer cells": {"test_system": "human cancer cells", "experiment": "Cytotoxicity to human cancer cells compared with metabolites", "type": "cell-based"}, "[3]": {"test_system": "pre-clinical models of lung cancer", "settings": "cited from earlier work"}, "[4]": {"settings": "plasma, after 8 min of inhalation treatment"}, "[5]": {"settings": "mouse, in vivo, inhaled or intranasal"}}, "data": [{"smiles": "CC1=C(CC(=O)O)c2cc(F)ccc2/C1=C\\c1ccc([S+](C)[O-])cc1", "note": "(centres unmarked) [Sulindac, sulindac]", "values": [{"measurement": "Tmax", "setting": "[1]; lung, after 8 min of inhalation treatment", "result": 0, "unit": "h"}, {"measurement": "AUC", "setting": "[1]; [4]", "result": 49.5}, {"measurement": "Tmax", "setting": "[1]; [4]", "result": 0, "unit": "h"}]}, {"smiles": "CCOP(=O)(OCC)OCCCCOC(=O)CC1=C(C)/C(=C/c2ccc([S+](C)[O-])cc2)c2ccc(F)cc21", "note": "(centres unmarked) [PS V, phospho-sulindac]", "values": [{"measurement": "PS levels in plasma", "setting": "[2]; after inhalation and oral administration", "result": "undetectable"}, {"measurement": "total drug levels (PS V plus its metabolites) in lungs, inhalation compared to oral", "setting": "[2]; inhalation 6.5 mg/kg vs oral 150 mg/kg", "result": "significantly higher"}, {"measurement": "inhibition of tumor growth (in words)", "setting": "A549 xenografts", "result": "small inhibition of tumor growth"}, {"measurement": "average tumor volume", "setting": "A549 xenografts", "result": "419±36", "unit": "mm^3"}, {"measurement": "reduction in tumor volume", "setting": "A549 xenografts; end of the study, vs control", "result": 19.6, "unit": "%"}, {"measurement": "reduction in tumor weight", "setting": "A549 xenografts; vs control", "result": 27, "unit": "%"}, {"measurement": "cytotoxicity relative to sulindac, sulindac sulfide XI and sulindac sulfone XII", "setting": "human cancer cells", "result": "more cytotoxic"}]}, {"smiles": "CSc1ccc(/C=C2/C(C)=C(CC(=O)O)c3cc(F)ccc32)cc1", "note": "[Sulindac sulfide XI, sulindac sulfide]", "values": [{"measurement": "AUC", "setting": "[1]; [5]", "result": 18.9}]}, {"smiles": "COc1cc(/C=C/C(=O)CC(=O)/C=C/c2ccc(O)c(OC)c2)ccc1O", "note": "[curcumin]", "values": [{"measurement": "inhibition of tumor growth (in words)", "setting": "A549 xenografts", "result": "ineffective"}, {"measurement": "average tumor volume", "setting": "A549 xenografts", "result": "599±98", "unit": "mm^3"}, {"measurement": "reduction in tumor weight", "setting": "A549 xenografts; vs control", "result": "not"}, {"measurement": "efficacy as a single agent", "setting": "[3]", "result": "< 30", "unit": "%"}]}, {"smiles": "CC1=C(CC(=O)O)c2cc(F)ccc2/C1=C\\c1ccc(S(C)(=O)=O)cc1", "note": "[Sulindac sulfone XII, sulindac sulfone]", "values": [{"measurement": "AUC", "setting": "[1]; [5]", "result": 57.5}, {"measurement": "Cmax", "setting": "[1]; [5]", "result": 4.6, "unit": "nmol/g"}]}]}
